Columns and labels:
[1] = tested on: (BHPI-sensitive) parental T47D cells; experiment: Growth of parental T47D cells (MTS); format: cell-based, human; settings: 100 nM and 1 μM, 4 days
Protocol: (§1) ERα containing T47D human breast cancer cells able to survive in 1 μM BHPI were selected by clonal outgrowth. The effect of 100 nM and 1 μM BHPI and (−)-105 on growth of the (BHPI-sensitive) parental T47D cells and partially BHPI-resistant T47D clones 1, 3, 8, and 11 was evaluated. 4,000 cells/well were plated. Cell number was determined by MTS assay from a standard curve of absorbance versus cell number. […] Thus, in 4 days (−)-105 killed some, but not all, of the resistant cells.

TYS-Luc cells = experiment: Long-term cell culture experiment, TYS-Luc cells (MTS); format: cell-based, human; settings: 2 weeks 1 μM, then 4 weeks without drug
Protocol: To simulate the effect of several weeks of treatment of a tumor in a mouse xenograft, long-term cell culture experiments were performed. TYS-Luc cells (T47DERαY537S-Luc cells; ERαY537S is the most lethal ERα mutation seen in metastatic breast cancer) were plated at 4,000 cells/well in 96 well plates. […] After 2 weeks (medium change every 2 days) cell number was determined using MTS and a standard curve of absorbance versus cell number for TYS-Luc cells. Notes: (i) Bars denote the BHPI and (−)-105 arms of the experiment. No drug is present during regrow. […] This allows any surviving cells to regrow. After 4 weeks the cells were assayed using MTS. […] (Note: Visual inspection of the wells confirmed that there were no cells in the well treated for 2 weeks with active (−)-105.) To test whether the cells that regrew after BHPI treatment were resistant to BHPI they were re-treated for another cycle (BHPI Retreat) and shown to retain sensitivity to BHPI killing. (n=8 biological replicates±SEM.

[2] = tested on: ERα positive breast cancer; experiment: Mouse xenograft model of ERα positive breast cancer (BHPI); format: in vivo; settings: at reasonable doses
[3] = tested on: T47D, TYS-4 and TDG-1 cells; experiment: MTS proliferation assay, T47D, TYS and TDG cells; format: cell-based, human; settings: 4 days
Protocol: FIG. 30 compares the ability of BHPI and test compounds to inhibit proliferation of T47D, TYS and TDG cells. T47D cells were in medium containing 10 FBS (which contains estrogen), TYS-4 and TDG-1 cells were in medium containing 10% cd-FBS (estrogen depleted). Cells are plated at 2,000 cells/well in 96 well plates. After 24 hours in medium containing FBS or charcoal-dextran treated FBS (depleted of endogenous estrogens), the indicated concentration of each compound (in DMSO at 1/1000th of the volume of medium) was added. After 2 days the medium was changed, and the compounds were added again. After 2 additional days (4 days total) MTS assays are used to evaluate cell proliferation. (n=6±S.E.M.).

[4] = tested on: partially BHPI-resistant T47D clones 1, 3, 8, and 11; experiment: Growth of partially BHPI-resistant T47D clones (MTS); format: cell-based, human; settings: 100 nM and 1 μM, 4 days
Protocol: as §1

[5] = tested on: ERα Negative MCF-10A cells; experiment: Trypan Blue exclusion cell death assay, MCF-10A cells; format: cell-based; settings: 75 nM, 24 hours
Source text: (§2) TRYPAN BLUE: For decades, viable cells have been measured by their ability to exclude the dye Trypan Blue. […] Dead cells, which have lost membrane integrity, take up the dye and are blue. Thus, the percentage of dead cells is the percentage of cells that are Trypan Blue positive out of the total cell population. Quantitative assessment of Trypan Blue uptake uses a cell counter from Fisher. Since the assay is instrument based, there is no observer bias in determining the percentage of Trypan Blue positive cells.
(§3) TRYPAN BLUE ASSAYS: Assays are performed on cells in 6 well plates: 300,000 cells are plated in each well of a 6 well plate in 3 ml of medium. After 24 hours, the DMSO vehicle or the indicated compound is added (in 1000th of the vol.) The cells incubated for an additional 24 hours, and then harvested in 0.25 ml of trypsin, followed after harvest by 0.75 ml of medium. The cells are spun down and resuspended in 100-200 μl of medium left that is over the cell pellet (resuspend cells by pipetting up and down a few times). Add 10 μl to 10 μl of trypan blue. Then 10 μl is inserted into the counting slide. After inserting the slide into the Fisher TC20 counting is automatic (these many cells are needed because an accurate ratio of Trypan Blue positive to Trypan Blue negative cells requires about 200 cells in the field the instrument counts).
In FIG. 28, neither the test compounds nor BHPI kill non-tumorigenic ERα Negative MCF-10A breast cells. ERα Negative MCF-10A cells were maintained for 24 hours in DMSO vehicle or 75 nM of BHPI or 75 nM of each of the indicated test compounds: 4, 6 and 105. Cell death was determined using the instrument-based Trypan Blue exclusion assay. (n=3±SEM).

Caov-3 cells = experiment: Cell death of Caov-3 ovarian cancer cells (automated Trypan Blue exclusion); format: cell-based, human; settings: 24 hours
Protocol: FIG. 33. 105, but not BHPI, kills therapy-resistant ovarian CaOV-3 ovarian cancer cells. (±)-105; Cell death assay: Automated Trypan Blue exclusion. (24 hours post (±)-105) FIG. 34. (−)105 nearly eradicates ER+ drug-resistant tumors. Orthotopic breast cancer model, TYS-Luc cells, 40 mg/kg (−)-105 i.p., daily. 7 d Post injection image is a much longer exposure at higher gain than before injection image.
Caov3: Drug resistant ERα positive ovarian cancer cells. […] These cells are completely resistant to tamoxifen and fulvestrant and partially resistant to cisplatin and paclitaxel.

T47D cells [6] = settings: 24 hours, up to 1,000 nM
Protocol: One such change is loss of plasma membrane polarity. This is monitored using Annexin V. Dying cells also take up the dye propidium iodide. Propidium iodide (PI) fluoresces when it is intercalated into DNA. These assays monitor cells at specific stages of cell death.
FLOW CYTOMETRY (FITC) ASSAYS: Cells were seeded in 12-well plates, 75,000 cells/well, and allowed to adhere overnight. The next day, the indicated concentrations of raptinal (positive control), (−)-105, (±)-105, and (+)-105 were added and allowed to incubate at 37° C. for 24 hours (Final Volume: 1 ml, 0.1% DMSO). After incubation, cells were harvested and resuspended in 350 μl of cold Annexin binding buffer (10 mM HEPES, 140 mM NaCl, 2.5 mM CaCl2, pH 7.4) premixed with Annexin V-FITC and PI dyes. Samples were analyzed on a BD Biosciences LSRII flow cytometer, and data analysis was performed using FSC Express Version 5-6. Cell death was assessed relative to a DMSO treated control.
T47D, human breast cancer cells were plated at 75,000 cells/well. […] After 24 hours viable cells were determined by FACS using annexin V-FITC and propidium iodide dyes. […]
75,000 ERα positive T47D, human breast cancer cells, were plated/well. […] After 24 hours viable cells were determined by FACS using annexin V-FITC and propidium iodide dyes. […]

TDG cells (T47DERαD538G) = experiment: Trypan Blue exclusion cell death assay, TDG cells; format: cell-based, human; settings: 24 hours
Source text: as §2, §3
The Trypan Blue cell death assay was used to evaluate the ability of the active enantiomer of C-105 [(−)-105] to kill ERα positive TDG-Luc cells. For all studies, 300,000 TDG-Luc cells/well in 10% FBS were plated in a 6 well plate in triplicate. 24 hours after plating, the indicated concentrations the active enantiomer of (−)-105, or BHPI (top) ICI, or OHT (Lower left) or (+)-105 (lower right) were added. After 24 hours, the cells were harvested, and the % dead cells was determined by automated Trypan Blue exclusion using the Countess II automated hemocytometer. Percentage of viable cells was calculated by doing 100−(Cell Death %). (n=3±SEM).
TDG cells were incubated for 24 hours with 75 nM of BHPI or 75 nM of each of the indicated test compounds: 4, 6 and (±)-105 (enantiomers not separated). Cell death was determined using the instrument-based Trypan Blue exclusion assay. Structures are in the Synthesis section. […] (n=3±SEM).

T47D cells [7] = experiment: Trypan Blue exclusion cell death assay, T47D cells; format: cell-based, human; settings: 75 nM, 24 hours
Source text: as §2
TRYPAN BLUE ASSAYS: Assays are performed on cells in 6 well plates: 300,000 cells are plated in each well of a 6 well plate in 3 ml of medium. After 24 hours, the DMSO vehicle or the indicated compound is added (in 1000th of the vol.) The cells incubated for an additional 24 hours, and then harvested in 0.25 ml of trypsin, followed after harvest by 0.75 ml of medium. […]
T47D cells were incubated for 24 hours with 75 nM of BHPI or 75 nM of each of the indicated test compounds: 4 and 6. Cell death was determined using the instrument-based Trypan Blue exclusion assay. […]
T47D cells were treated for 24 hours with 100 nM BHPI, or with 100 nM of each of the test compounds: 6, 8, and 105. […] Cell death was determined using the instrument-based Trypan Blue exclusion assay. […]

TYS cells (T47DERαY537S) = experiment: Trypan Blue exclusion cell death assay, TYS cells; format: cell-based, human; settings: 24 hours
Source text: as §2, §3
TYS cells were incubated for 24 hours with 35 nM of BHPI or 35 nM of each of the indicated test compounds: 2, 4, and 105. Cell death was determined using the instrument-based Trypan Blue exclusion assay. (n=3±SEM).
TYS cells were incubated for 24 hours with 50 nM of BHPI or 50 nM of each of the indicated test compounds: 4, 6 and 105. Cell death was determined using the instrument-based Trypan Blue exclusion assay. (n=3±SEM).

[8] = tested on: ATP levels in TYS-Luc cells; experiment: Intracellular ATP levels; format: cell-based, human; settings: 10,000 nM thapsigargin with 1,000 nM (−)-105, 1 hr
Protocol: TYS-Luc cells were maintained DMSO vehicle (Veh), 1,000 nM BHPI, 1,000 nM (−)-105 with and without 10,000 nM thapsigargin (THG) for the indicated times. ATP levels were determines using a kit and relative ATP levels were from a standard curve. […] (n=3±SEM).

MCF-7 and TYS-Luc cells = experiment: Cell death with 2-APB or thapsigargin (Trypan Blue exclusion); format: cell-based, human; settings: thapsigargin, TYS-Luc cells, 1 hour
Protocol: ERα positive MCF-7 and TYS-Luc were treated with DMSO vehicle (Veh), or BHPI or (−)-105 plus or minus 2-APB for the indicated times. Cells death was determined using the instrument-based Trypan Blue exclusion assay. […] This is consistent with (−)-105 inducing powerful lethal activation of the anticipatory UPR pathway. (n=3±SEM). […] TYS-Luc cells were maintained in DMSO vehicle (Veh) or BHPI, or (−)-105 with or without thapsigargin (THG) for the indicated times. Blocking the decline in ATP levels (FIG. 19) with THG inhibited (−)-105-induced cell death. […] (n=3±SEM).

## Cc1cccc2c1NC(=O)C2(c1ccc(O)cc1)c1ccc(O)cc1 [BHPI, reference compound]
OVCAR-3 cells; OVCAR-3 orthotopic xenograft
  effect on tumor growth / tumors: strongly reduced tumor growth
OVCAR-3 cells; in both studies
  tolerability in mice: well tolerated
[1]
  growth / killing of parental T47D cells: blocked growth and killed many of the T47D cells
TYS-Luc cells
  regrowth of cells after treatment: robust regrowth
[2]
  effect on tumor growth: stopped tumor growth and induced rapid and substantial tumor regression
[3]
  inhibition of proliferation: effectively inhibit proliferation
[4]
  growth of the BHPI-resistant clones: inhibited growth but could not stop growth of the resistant clones
[5]
  death of ERα Negative MCF-10A cells: neither BHPI nor any of the test compounds induce significant death
Caov-3 cells
  killing of Caov-3 ovarian cancer cells: blocks growth of Caov-3 cells but does not kill them

## CC/C(=C(\c1ccc(O)cc1)c1ccc(OCCN(C)C)cc1)c1ccccc1 [OHT, z-4-hydroxytamoxifen, reference compound]
T47D cells [6]
  cytotoxic or cytostatic phenotype: cytostatic
TDG cells (T47DERαD538G); dose response, TDG-Luc cells
  killing of TDG-Luc cells: do not kill

## COc1ccc(C2(c3ccc(O)cc3)C(=O)Nc3c(C(F)(F)F)cccc32)cc1 (stereo not shown) [compound 4, 3-(4-hydroxyphenyl)-3-(4-methoxyphenyl)-7-(trifluoromethyl)indolin-2-one]
T47D cells [7]
  ability to kill T47D cells (wild type estrogen receptor): greatly increased ability to kill
TDG cells (T47DERαD538G); 75 nM
  ability to kill TDG cells compared to BHPI: greatly increased ability to kill
[3]
  effectiveness in killing ERα positive breast cancer cells compared to BHPI: more effective than BHPI
[5]
  death of ERα Negative MCF-10A cells: neither BHPI nor any of the test compounds induce significant death
TYS cells (T47DERαY537S); 35 nM
  ability to kill TYS cells compared to BHPI: greatly increased ability to kill
TYS cells (T47DERαY537S); 50 nM
  ability to kill TYS cells compared to BHPI: increased ability to kill

## C/C=C(/C)C(=O)O[C@H]1C(C)=C2[C@H]([C@@H]1OC(=O)CCCCCCC)[C@@](C)(OC(C)=O)C[C@H](OC(=O)CCC)[C@@]1(O)[C@H]2OC(=O)[C@@]1(C)O [THG, thapsigargin, reference compound]
[8]
  effect on (−)-105-induced decline in ATP levels: completely blocked
MCF-7 and TYS-Luc cells
  effect on (−)-105-induced cell death: strong inhibition

Source: patent publication US12180159B2, “Activators of the unfolded protein response” (The Board of Trustees of the University of Illinois, priority 2018, dated 2024)
